This note sets out measurements from patent US12521393B2, “Cytotoxicity targeting chimeras for CCR2-expressing cells” (GLAXOSMITHKLINE INTELLECTUAL PROPERTY DEVELOPMENT LIMITED, priority 2021, dated 2026).

By IC50 is commonly meant the concentration that inhibits the measured activity by half. High values mean a need for much substance, low ones inhibition by little substance.

Molecules are shown by their SMILES.

Data set [1] is described as follows: Blood drug concentration analysis by LC-MS/MS after IV dosing with anti-cotinine antibody (Example 201). The data set is classed as in vivo. Particulars: C57 background, human CCR2 knock-in, mouse; hCCR2 knock-in mice, IV 0.1 mpk compound + 10 mpk anti-cotinine antibody, whole blood, 48 hours post-dose; read-out: Exposure of Compound of Formula (I) 48 hours post-dose. The protocol: After bleeding, each mouse was sacrificed by cervical dislocation. […] Flow Cytometry Analysis:
Samples were analyzed on Q-Trap. […] The total run time was 2 minutes.

Data set [2] concerns the target human alpha1 nicotinic acetylcholine (nACh) receptor (Homo sapiens, UniProt P02708). The experiment in a line: Nicotinic acetylcholine receptor antagonism assay, IONFlux automated patch clamp (Example 203). The data set is classed as cell-based. Particulars: for IC50: antagonism of ACh-stimulated human alpha1 nAChR current, patch clamp; for Emax at 10 µM: maximum percentage antagonism at maximum concentration tested 10 μM; for Emax at 10 µM / Emax at 100 µM: read-out: Maximum Response; for Emax at 100 µM: maximum percentage antagonism at maximum concentration tested 100 μM. Put shortly: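 Cells expressing human α1 nAChR were incubated with a compound dose response (top 10 μM or 100 μM), then stimulated with ACh (10 mM), and peak current was read by automated patch clamp. % inhibition was taken against ACh-alone control, corrected for vehicle and run-down, and fit non-linearly for IC50; runs were averaged.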
(In general: The patch-clamp technique gives a direct electrical read-out from membranes.)

Data set [3] has as its target anti-cotinine antibody (SEQ ID NO: 11/12, rabbit variable region with human IgG1 Fc DE mutation). The experiment in a line: SPR binding of anti-cotinine antibody to ARM compounds, Biacore T200, 37° C. (Example 202). Particulars: SPR Biacore T200, 37° C., pH 7.4, antibody SEQ ID NO: 11/12 captured on protein A; Kd in molar. Put shortly: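 Antibody captured on a protein A chip; ARM compounds injected at 100 μL/min (200 s association, 2000 s dissociation), 3-fold 5-point series from 200 nM, at 37 °C in HEPES pH 7.4 buffer with 0.005% P20 and 1% DMSO. Double-referenced sensorgrams fit 1:1 for kon, koff, Kd (koff/kon), residence time (1/koff); pKd averaged across runs.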

The target of data set [4] is T1, CHOK1 cells engineered to overexpress human CCR2 (Homo sapiens, UniProt P41597).
T1 construct: expressed in transfected cells; host or cells: CHOK1
As to the kind of experiment: Antibody dependent cellular cytotoxicity (ADCC) reporter assay (Example 199). Format: cell-based. Particulars: with anti-cotinine antibody (SEQ ID NO: 11/12), Jurkat FcγRIIIa NFAT-luciferase reporter cells, 12-18 hours, EC50 in molar, average or individual runs; for EC50: read-out: ADCC Reporter Assay pEC50 (converted). The protocol: An antibody dependent cellular cytoxocity reporter assay was conducted using the following four assay components: (i) ARM compound of Formula (I) targeting CCR2 (concentrations ranging from […] to 10 μM) (ii) anti-cotinine antibody having a heavy chain sequence of SEQ ID NO: 11 and a light chain sequence of SEQ ID NO: 12 (rabbit variable region with human IgG1 Fc domain containing a DE mutation (S239D/1332E)) (concentrations ranging from 0.01 μg/mL to 200 μg/mL); (iii) target cells: CHOK1 cells engineered to overexpress either human CCR2 (typically 1000-20,000 cells per well) and (iv) reporter cells: Jurkat cells engineered to express FcγRIIIa with the reporter gene luciferase under the control of the NFAT promoter (typically 3000-75,000 cells per well). Reagents were combined in a final volume of 20 μL in a 384-well tissue culture treated plate. All four assay components were incubated together for about 12-18 hours. Thereafter, BioGlo Detection reagent (Promega) was added to the wells to lyse the cells and provide a substrate for the luciferase reporter protein. Luminescence signal was measured on a microplate reader and signal: background was calculated by dividing the signal of a test well by the signal obtained when no heterobivalent compound of Formula (I) was added. EC50 calculations were done using Graphpad Prism Software, specifically a nonlinear regression curve fit (Y=Bottom+(Top−Bottom)/(1+10A((LogEC50−X)*HillSlope))).
ARMs compounds of Formula (I) of the invention were tested for ADCC activity in the above assay in or more experimental runs and the results are shown in Table 3 below. Potency of the compounds of Formula (I) of the invention is reported as a pEC50 value. The pEC50 value is the negative log of the EC50 value, wherein the EC50 value is the half maximal effective concentration measured in molar (M). For compounds tested in more than one experimental run, the pEC50 value is reported as an average.
(In a reporter assay the amount or activity of a reporter protein is the signal.)

Chain of human alpha1 nicotinic acetylcholine (nACh) receptor (P02708 21-457): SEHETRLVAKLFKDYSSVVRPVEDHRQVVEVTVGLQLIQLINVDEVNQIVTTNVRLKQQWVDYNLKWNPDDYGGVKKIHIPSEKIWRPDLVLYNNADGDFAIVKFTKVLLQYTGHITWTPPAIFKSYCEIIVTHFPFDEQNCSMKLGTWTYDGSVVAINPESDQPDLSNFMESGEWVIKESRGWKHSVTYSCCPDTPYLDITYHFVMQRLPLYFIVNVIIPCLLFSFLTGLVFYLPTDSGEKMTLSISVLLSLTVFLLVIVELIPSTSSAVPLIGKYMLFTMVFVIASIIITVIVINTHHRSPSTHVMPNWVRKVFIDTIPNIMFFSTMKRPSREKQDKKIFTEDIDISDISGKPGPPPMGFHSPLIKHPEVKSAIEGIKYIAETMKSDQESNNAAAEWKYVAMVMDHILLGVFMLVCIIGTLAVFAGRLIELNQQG
Chain of human alpha1 nicotinic acetylcholine (nACh) receptor (P11230 24-501 partner): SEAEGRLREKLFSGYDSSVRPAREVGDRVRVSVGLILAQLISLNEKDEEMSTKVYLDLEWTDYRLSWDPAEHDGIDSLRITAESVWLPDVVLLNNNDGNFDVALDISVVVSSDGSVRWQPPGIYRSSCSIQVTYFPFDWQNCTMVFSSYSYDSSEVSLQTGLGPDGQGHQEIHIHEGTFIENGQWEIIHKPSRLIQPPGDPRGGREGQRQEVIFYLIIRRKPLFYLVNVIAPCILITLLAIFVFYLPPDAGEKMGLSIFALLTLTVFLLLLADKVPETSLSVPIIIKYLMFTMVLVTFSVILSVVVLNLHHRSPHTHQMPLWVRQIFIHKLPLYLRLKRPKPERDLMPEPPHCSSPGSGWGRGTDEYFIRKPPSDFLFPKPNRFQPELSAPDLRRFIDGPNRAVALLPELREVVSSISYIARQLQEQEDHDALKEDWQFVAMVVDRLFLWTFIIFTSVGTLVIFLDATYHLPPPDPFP
Chain of human alpha1 nicotinic acetylcholine (nACh) receptor (Q07001 22-517 partner): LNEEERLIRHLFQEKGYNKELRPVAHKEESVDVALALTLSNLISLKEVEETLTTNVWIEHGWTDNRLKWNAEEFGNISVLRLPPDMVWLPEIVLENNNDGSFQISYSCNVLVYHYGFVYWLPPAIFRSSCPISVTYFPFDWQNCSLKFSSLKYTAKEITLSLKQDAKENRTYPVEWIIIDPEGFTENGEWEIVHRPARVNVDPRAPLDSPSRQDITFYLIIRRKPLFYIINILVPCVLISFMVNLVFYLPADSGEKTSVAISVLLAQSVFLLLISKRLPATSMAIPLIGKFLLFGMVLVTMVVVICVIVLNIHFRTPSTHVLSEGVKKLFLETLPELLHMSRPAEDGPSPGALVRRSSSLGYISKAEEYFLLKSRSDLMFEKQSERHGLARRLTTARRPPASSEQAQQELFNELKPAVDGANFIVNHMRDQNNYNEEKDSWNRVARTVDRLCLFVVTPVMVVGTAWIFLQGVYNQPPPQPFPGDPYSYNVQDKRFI

As to `CN1C(=O)C[C@H](C(=O)NCCOCCOCCOCCOCCOCCC(=O)N[C@@H]2C[C@H](NC(C)(C)C)CC[C@@H]2N2CC[C@H](Nc3ncnc4ccc(C(F)(F)F)cc34)C2=O)[C@H]1c1cccnc1` [Example 37, (2S,3S)-N-(18-(((1R,2S,5R)-5-(tert-Butylamino)-2-((S)-2-oxo-3-((6-(trifluoromethyl)quinazolin-4-yl)amino)pyrrolidin-1-yl)cyclohexyl)amino)-18-oxo-3,6,9,12,15-pentaoxaoctadecyl)-1-methyl-5-oxo-2-(pyridin-3-yl)pyrrolidine-3-carboxamide], in data set [1], the concentration at 48 h is 48.7 ng/mL. In addition, in data set [2], the IC50 was at least 10000 nM and the Emax at 10 µM was 7.3%. For the same compound, in data set [3], the “pKd of Antibody for ARM Compound of Formula (I)” value (shortened to “pKd of Antibody”) worked out at 9.7475. Moreover, the EC50 in data set [4] is 12.6 nM.
Taken in the same sequence, the figures for `CN1C(=O)C[C@H](C(=O)NCCOCCOCCOCCOCCOCCOCCC(=O)N[C@@H]2C[C@H](NC(C)(C)C)CC[C@@H]2N2CC[C@H](Nc3ncnc4ccc(C(F)(F)F)cc34)C2=O)[C@H]1c1cccnc1` [Example 38, (2S,3S)-N-(21-(((1R,2S,5R)-5-(tert-Butylamino)-2-((S)-2-oxo-3-((6-(trifluoromethyl)quinazolin-4-yl)amino)pyrrolidin-1-yl)cyclohexyl)amino)-21-oxo-3,6,9,12,15,18-hexaoxahenicosyl)-1-methyl-5-oxo-2-(pyridin-3-yl)pyrrolidine-3-carboxamide] were 47.6 ng/mL, at least 10000 nM, -2.2%, 9.611 and 2.51 nM.
On to `CC(C)N(C)[C@@H]1CC[C@H](N2CC[C@H](Nc3ncnc4ccc(C(F)(F)F)cc34)C2=O)[C@H](NC(=O)CCOCCOCCOCCOCCOCCNC(=O)[C@H]2CC(=O)N(C)[C@@H]2c2cccnc2)C1` [Example 40, (2S,3S)-N-(18-(((1R,2S,5R)-5-(Isopropyl(methyl)amino)-2-((S)-2-oxo-3-((6-(trifluoromethyl)quinazolin-4-yl)amino)pyrrolidin-1-yl)cyclohexyl)amino)-18-oxo-3,6,9,12,15-pentaoxaoctadecyl)-1-methyl-5-oxo-2-(pyridin-3-yl)pyrrolidine-3-carboxamide], for which, in data set [2], the IC50 was at least 10000 nM and the Emax at 10 µM was found to be 24.7%. In data set [3], the “pKd of Antibody” value is 9.4525. Besides, in data set [4], the EC50 was 6.31 nM.
Taken in the same sequence, the figures for `CC(C)N(C)[C@@H]1CC[C@H](N2CC[C@H](Nc3ncnc4ccc(C(F)(F)F)cc34)C2=O)[C@H](NC(=O)CCOCCOCCOCCOCCOCCOCCNC(=O)[C@H]2CC(=O)N(C)[C@@H]2c2cccnc2)C1` [Example 41, (2S,3S)-N-(21-(((1R,2S,5R)-5-(isopropyl(methyl)amino)-2-((S)-2-oxo-3-((6-(trifluoromethyl)quinazolin-4-yl)amino)pyrrolidin-1-yl)cyclohexyl)amino)-21-oxo-3,6,9,12,15,18-hexaoxahenicosyl)-1-methyl-5-oxo-2-(pyridin-3-yl)pyrrolidine-3-carboxamide] were at least 10000 nM, 20.1%, 9.3615 and 2 nM.
Take `CC(C)N(C)[C@@H]1CC[C@H](N2CC[C@H](Nc3ncnc4ccc(C(F)(F)F)cc34)C2=O)[C@H](NC2CCN(C(=O)CCOCCOCCOCCOCCNC(=O)[C@H]3CC(=O)N(C)[C@@H]3c3cccnc3)CC2)C1` [Example 69, (2S,3S)-N-(15-(4-(((1R,2S,5R)-5-(Isopropyl(methyl)amino)-2-((S)-2-oxo-3-((6-(trifluoromethyl)quinazolin-4-yl)amino)pyrrolidin-1-yl)cyclohexyl)amino)piperidin-1-yl)-15-oxo-3,6,9,12-tetraoxapentadecyl)-1-methyl-5-oxo-2-(pyridin-3-yl)pyrrolidine-3-carboxamide]: in data set [1], the concentration at 48 h worked out at 39.9 ng/mL. Moreover, the “pKd of Antibody” value in data set [3] is reported as 9.321. In addition, in data set [4], the EC50 is 0.316 nM.
Regarding `CC(C)N(C)[C@@H]1CC[C@H](N2CC[C@H](Nc3ncnc4ccc(C(F)(F)F)cc34)C2=O)[C@H](NC(=O)[C@H]2CC[C@@H](NC(=O)CCCOCCCCOCCNC(=O)[C@H]3CC(=O)N(C)[C@@H]3c3cccnc3)CC2)C1` [Example 122, (2S,3S)-N-(2-(4-(4-(((1S,4s)-4-(((1R,2S,5R)-5-(Isopropyl(methyl)amino)-2-((S)-2-oxo-3-((6-(trifluoromethyl)quinazolin-4-yl)amino)pyrrolidin-1-yl)cyclohexyl)carbamoyl)cyclohexyl)amino)-4-oxobutoxy)butoxy)ethyl)-1-methyl-5-oxo-2-(pyridin-3-yl)pyrrolidine-3-carboxamide], in data set [2], the IC50 is at least 10000 nM and the Emax at 10 µM was found to be 23%. In addition, in data set [3], the “pKd of Antibody” value is listed as 9.146. Moreover, the “ADCC Reporter Assay pEC50” value in data set [4] was 9.
With `CN1C(=O)C[C@H](C(=O)NCCOCCNC(=O)[C@H]2C[C@H](NC(=O)CCOCCC(=O)N[C@@H]3C[C@H](NC(C)(C)C)CC[C@@H]3N3CC[C@H](Nc4ncnc5ccc(C(F)(F)F)cc45)C3=O)C2)[C@H]1c1cccnc1` [Example 188, (2S,3S)-N-(2-(2-((1R,3S)-3-(3-(3-(((1R,2S,5R)-5-(tert-butylamino)-2-((S)-2-oxo-3-((6-(trifluoromethyl)quinazolin-4-yl)amino)pyrrolidin-1-yl)cyclohexyl)amino)-3-oxopropoxy)propanamido)cyclobutane-1-carboxamido)ethoxy)ethyl)-1-methyl-5-oxo-2-(pyridin-3-yl)pyrrolidine-3-carboxamide], the concentration at 48 h in data set [1] stood at 73 ng/mL. In data set [2], the IC50 amounted to 85900 nM and the Emax at 100 µM stood at 53.5%. In addition, the “pKd of Antibody” value in data set [3] came out at 8.975. In data set [4], the EC50 was 0.501 nM.
Turning to `CC(C)N(C)[C@@H]1CC[C@H](N2CC[C@H](Nc3ncnc4ccc(C(F)(F)F)cc34)C2=O)[C@H](NC(=O)[C@H]2CC[C@H](C(=O)NCCCOCCCCOCCCNC(=O)[C@H]3CC(=O)N(C)[C@@H]3c3cccnc3)CC2)C1` [Example 194, (1r,4R)-N^1-((1R,2S,5R)-5-(Isopropyl(methyl)amino)-2-((S)-2-oxo-3-((6-(trifluoromethyl)quinazolin-4-yl)amino)pyrrolidin-1-yl)cyclohexyl)-N^4-(3-(4-(3-((2S,3S)-1-methyl-5-oxo-2-(pyridin-3-yl)pyrrolidine-3-carboxamido)propoxy)butoxy)propyl)cyclohexane-1,4-dicarboxamide], in data set [2], the IC50 is at least 100000 nM and the Emax at 100 µM stood at 44.9%. Also, the “pKd of Antibody” value in data set [3] was 9.5415.
